From paper PMC10629583, “Specific inhibition of an anticancer target, polo-like kinase 1, by allosterically dismantling its mechanism of substrate recognition” (Proceedings of the National Academy of Sciences of the …, 2023) come the findings set out here.

The target of one data set is T1, PBD2 S652F mutant (Homo sapiens, UniProt Q9NYY3, S652F).
T1 construct: Purification of PBD2-His (355–685) (pKM3358) and its S652F mutant (pKM7980); His (C); made in house; host or cells: bacteria (E. coli)
The data set can be described thus: FP-based inhibition assay, PBD2 S652F. In kind it is binding. Here is the method:
(§1) FP assays were carried out essentially as described previously ([35], [36]). FITC-conjugated ligands (15 nM) were mixed with PBDs at their EC85 concentrations. All the samples were analyzed approximately 30 min after reaction in a 384-well format using the SpectraMax Paradigm multimode microplate detection platform (Molecular Devices). Data were analyzed after carrying out at least three independent experiments using GraphPad Prism software version 8.
Fig. S3. Sequence alignment showing unique PBD2 S652 and PBD3 A612 residues and FP-based Allopole-A inhibition assays carried out with PBD2 S652F and PBD A612F mutants. (A) Human PBD1 (Uniprot ID: P53350), PBD2 (Uniprot ID: Q9NYY3), and PBD3 (15niport ID:Q9H4B4) sequences were aligned using Clustal Omega. The polo-box cap and L1 loop regions were adjusted based on the structural superposition of PBD1 (PDB ID: 3HIK), PBD2 (PDB_ID: 4RS6), and the AlphaFold model of PBD3 (https://alphafold.ebi.ac.uk). […]
with PBD2 and MBP-PBD3 are working properly under our conditions. […] The Kd values for the indicated proteins were determined after extrapolating them from the binding curves as the […]
concentration at which 50% of FITC-conjugated ligands (FITC-GPMQTSpTPKNG for PBD2 and FITC-GPLATSpTPKNG for PBD3) (5) are protein-bound. The EC85 values indicate the effective concentration of 85% of the maximal concentration calculated for each protein. […]

The next data set has as its target T2, PBD1 F559E mutant (Homo sapiens, UniProt P53350, F559E).
T2 construct: constructs expressing PBD1 (residues 345–603) WT (pKM7650), F559D (pKM7878), F559E (pKM7879); His; TEV site (N); made in house; host or cells: bacteria (E. coli)
The data set can be described thus: FP-based binding/inhibition assay, PBD1 F559E. The conditions noted are these: PBD1 F559E at EC85. The method, then:
as §1
Fig. S4. Generation of F559 mutants for in vitro and cell-based assays in Fig. 4. (A) SDS-PAGE showing the proteins used for the FP assays in Fig. 4 A and B. CBB, a Coomassie Brilliant Blue– stained gel. (B) Summary of Kd and EC85 values for PBD1 WT and mutants. The Kd values for PBD1 WT and mutants were determined after extrapolating them from the binding curves as the concentration at which 50% of the FITC-Ahx-DPPLHSpTAI-NH2 are PBD1-bound. The EC85 values indicate the effective concentration of 85% of the maximal concentration calculated for each protein. The FP values were obtained 30 minutes after incubation. For the F559K and F559R mutants, we were not able to determine the EC85 values and therefore used 2 µM of these proteins for the assays in Fig. 4B. N.D., not determined. […]

A further data set addresses T3, Plk2 PBD (PBD2) (Homo sapiens, UniProt Q9NYY3).
T3 construct: Purification of PBD2-His (355–685) (pKM3358) and its S652F mutant (pKM7980); His (C); made in house; host or cells: bacteria (E. coli)
T3 sequence (Q9NYY3 355-685): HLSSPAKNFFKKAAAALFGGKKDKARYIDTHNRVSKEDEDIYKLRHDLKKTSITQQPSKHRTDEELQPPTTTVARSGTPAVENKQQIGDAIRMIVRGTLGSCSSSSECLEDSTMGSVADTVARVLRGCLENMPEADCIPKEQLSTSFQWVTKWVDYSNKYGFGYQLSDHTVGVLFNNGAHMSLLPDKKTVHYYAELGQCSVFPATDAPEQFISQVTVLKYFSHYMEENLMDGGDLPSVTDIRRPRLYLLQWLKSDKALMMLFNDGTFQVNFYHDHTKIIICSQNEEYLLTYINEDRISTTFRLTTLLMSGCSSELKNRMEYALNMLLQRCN
The data set can be described thus: FP-based inhibition assay, PBD2. It is filed as binding. The conditions noted are these: bacterially expressed purified PBD, FITC-ligand 15 nM, PBD at EC85. Here is the method: FP assays were carried out essentially as described previously ([35], [36]). […] All the samples were analyzed approximately 30 min after reaction in a 384-well format using the SpectraMax Paradigm multimode microplate detection platform (Molecular Devices). Data were analyzed after carrying out at least three independent experiments using GraphPad Prism software version 8.

The target in the next data set is T4, Plk3 PBD (PBD3) (Homo sapiens, UniProt Q9H4B4).
T4 construct: MBP-PBD3-His (335–646) (pKM3359) and its A612F (pKM7981); His (C); made in house; host or cells: bacteria (E. coli)
T4 sequence (Q9H4B4 335-646): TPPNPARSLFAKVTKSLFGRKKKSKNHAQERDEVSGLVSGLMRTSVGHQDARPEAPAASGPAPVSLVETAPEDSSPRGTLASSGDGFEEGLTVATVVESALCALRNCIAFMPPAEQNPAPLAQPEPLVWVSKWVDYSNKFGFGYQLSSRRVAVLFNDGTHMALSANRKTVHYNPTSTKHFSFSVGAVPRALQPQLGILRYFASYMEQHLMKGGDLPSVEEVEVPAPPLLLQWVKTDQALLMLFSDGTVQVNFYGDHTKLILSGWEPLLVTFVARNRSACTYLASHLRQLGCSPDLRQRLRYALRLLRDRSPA
The data set can be described thus: FP-based inhibition assay, PBD3. The conditions noted are these: bacterially expressed purified PBD, FITC-ligand 15 nM, PBD at EC85. It is filed as binding. Here is the method:
as §1

The nature of data set [1]: Solubility in PBS (imaging of insoluble particles, dynamic light scattering). In kind it is physicochemical. The settings on record: PBS buffer (pH 7.4). Here is the method: All samples were analyzed after adjusting the concentration to 100 μM solution in the PBS buffer (pH 7.4) containing 1% DMSO. The measurements were carried out at 25 °C using the DynaPro NanoStar system (Wyatt Technology). The intensity of the scattered light was measured as a function of time, and the resulting data were used to calculate the size and distribution of the particles in the sample. Collected data were analyzed using the DYNAMICS software to calculate the mean size and polydispersity index of the particles in the sample. At least three repeat measurements were performed to ensure that the results were accurate and reproducible.
Fig. S1. Solubility and activity of Allopole and its related compounds. (A) Images showing insoluble
particles of 200 µM of the indicated compounds dissolved in the PBS buffer. The aggregates of […]

T2 sequence (P53350 345-603 F559E): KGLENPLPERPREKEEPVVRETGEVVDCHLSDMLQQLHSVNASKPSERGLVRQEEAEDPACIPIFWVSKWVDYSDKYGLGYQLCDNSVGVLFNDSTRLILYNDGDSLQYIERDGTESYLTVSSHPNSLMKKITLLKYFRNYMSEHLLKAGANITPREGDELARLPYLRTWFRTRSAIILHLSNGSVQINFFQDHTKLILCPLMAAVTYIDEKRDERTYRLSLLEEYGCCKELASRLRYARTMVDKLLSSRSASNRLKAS
T1 sequence (Q9NYY3 355-685 S652F): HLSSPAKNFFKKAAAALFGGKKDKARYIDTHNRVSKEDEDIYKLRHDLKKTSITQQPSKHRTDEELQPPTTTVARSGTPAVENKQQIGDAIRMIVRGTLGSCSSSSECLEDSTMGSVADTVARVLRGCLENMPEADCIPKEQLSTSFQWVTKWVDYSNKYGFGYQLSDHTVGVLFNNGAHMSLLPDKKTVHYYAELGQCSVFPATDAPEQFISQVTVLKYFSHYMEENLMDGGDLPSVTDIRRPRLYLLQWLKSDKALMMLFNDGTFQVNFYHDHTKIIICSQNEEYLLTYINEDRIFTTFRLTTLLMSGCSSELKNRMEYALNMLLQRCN

Regarding `O=c1c2sc(Cl)cc2n2c(=S)[nH]nc2n1CC1CC1` [Allopole-A], on PBD2 S652F mutant, the “Inhibition in FP assay (in words)” value is “not inhibitable”. In addition, on PBD1 F559E mutant, the “Inhibition of FITC-phosphopeptide binding (in words)” value is “failed to inhibit”. Besides, on Plk2 PBD (PBD2), the “PBD2 IC50 ± SD” value is given as “N. S”. The “PBD3 IC50 ± SD” value at Plk3 PBD (PBD3) is “N. S”.

As for `Cn1cnc([N+](=O)[O-])c1Sc1nnc2n(CC3CC3)c(=O)c3sc(Cl)cc3n12` [Allopole], in data set [1], the “Solubility (in words)” value was “greatly increased solubility”.
